Literature values, collected in US10688050B1 (Synthon B.V., priority 2018, dated 2020).
Read-outs that look alike come from different tables or passages of the source.

Experiments:
[1] = not given; remark: listed apart in the source

| SMILES | solubility (pH 1.2) | solubility (pH range from 3 to 8) | solubility (BCS) [1] |
| --- | --- | --- | --- |
| C=CC(=O)N1CCC[C@@H](n2nc(-c3ccc(Oc4ccccc4)cc3)c3c(N)ncnc32)C1 [ibrutinib form A] | slightly soluble | practically insoluble |  |
| C=CC(=O)N1CCC[C@@H](n2nc(-c3ccc(Oc4ccccc4)cc3)c3c(N)ncnc32)C1 [Ibrutinib, 1-[(3R)-3-[4-amino-3-(4-phenoxyphenyl)-1H-pyrazolo[3,4-d]pyrimidin-1-yl]piperidin-1-yl]prop-2-en-1-one] |  |  | low |
